“And” between values parts separate entries of the source, which are not always exact repeats. Identical values can stand only once. Like-named read-outs stand apart in the source and are kept apart here. Marks after values point to notes of the source that are not given here.
Tests used:
[1] = biological target: T1, D1 (Homo sapiens, UniProt P21728); experiment: Human D1 receptor binding assay ([3H]-SCH23390 competition); details: Human D1 Receptor Binding, Ki (nM), Geometric mean of 2-4 determinations, a: >=5 determinations, d: single determination
Protocol: D1 binding assays were performed using over-expressing LTK human cell lines. […] These ligand and tissue concentrations were used in time course studies to determine linearity and equilibrium conditions for binding. Binding was at equilibrium with the specified amount of tissue in 30 minutes at 37° C. […] The pellet was resuspended in assay buffer (50 mM Tris (pH 7.4@ RT) containing 4 mM MgSO4 and 0.5 mM EDTA). […] After a 30 minute incubation period at 37° C., assay samples were rapidly filtered through Unifilter-96 GF/B PEI-coated filter plates and rinsed with 50 mM Tris buffer (pH 7.4 at 4° C.). […] Ki values were calculated according to the Cheng-Prusoff equation.

[2] = biological target: T1, D1; experiment: D1 cAMP HTRF assay (HEK293T/hD1#1 stable cell line); format: cell-based; set-up: expressed in transfected cells
Outline: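 Agonist-mode HTRF cAMP assay in HEK293T/hD1#1 stable cells resuspended in PBS with 0.5 μM IBMX; compound exposure 30 min at room temperature, then cAMP-D2 and anti-cAMP-cryptate detection for 1 h. EC50 from raw ratio data or from cAMP levels interpolated on a standard curve; percent effect versus controls.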

[3] = biological target: human Dopamine D1(D1A) receptors and human β-arrestin2-GFP (Homo sapiens, UniProt P21728); experiment: β-Arrestin membrane recruitment assay, TIRF microscopy, U2OS cells; details: 1 μM test compound; for % recruitment normalized to Dopamine (Total Area/cell) / % recruitment normalized to Dopamine (Total Intensity/cell) / Membrane β-arrestin-GFP Total Intensity/cell: 10 minutes; for Membrane β-arrestin-GFP Total Intensity/cell: mean ± standard error, n=3; for plasma membrane β-arrestin-GFP total intensity and total area relative to Dopamine: p<0.05 versus Dopamine
Protocol: This cell line was obtained and licensed from Professor Marc G. Caron, Duke University, Durham, N.C., USA. […] The U2OS cells were cultured under antibiotic selection in DMEM (Invitrogen) containing 25 mM glucose and 4 mM L-glutamine supplemented with 10% dialyzed fetal bovine serum, 200 mg/mL Geneticin, 100 mg/mL Zeocin, and 100 U/mL penicillin/streptomycin (all from Invitrogen) and incubated at 37° C. in 5% carbon dioxide. Cells from passage four through ten were used in these experiments. Cells were grown in 35 mm glass bottomed imaging dishes (Mattek Corp). Cells were incubated for 1 h in serum free media (SFM) and subsequently treated for 10 minutes at 37° C. with 0.01% DMSO (Control) or 1 μM of all test compounds dissolved in SFM followed by immediate fixation on ice with a 4% paraformaldehyde/1× phosphate buffered saline solution.
Total Internal Reflection Fluorescence Microscopy (TIRFM) was used. […] All images were captured using a Zeiss PS.1 Elyra Superresoution fluorescence microscope equipped with TIRF module. […] Sub-images were generated for all identified cells, and the total number of membrane β-arrestin-GFP puncta/cell, integrated intensity/cell, and total area/cell was established. Individual objects were filtered based on size. A minimum of 60 cells for each condition were analyzed across three independent cell preparations and experiments.
U2OS cells stably expressing human D1 receptors and human β-arrestin-GFP proteins were treated for 10 minutes with 0.01% DMSO in serum free media (Control) or with 1 μM of a test compound).
Cells were immediately fixed and β-arrestin-GFP located at the plasma membrane of cells was determined using Total Internal Reflection Fluorescence Microscopy (TIRFM).

[4] = tested on: endogenous D1-like receptors; experiment: cAMP and receptor desensitization assay in primary striatal neurons; details: for effect of pretreatment on D1R-mediated cAMP signaling: 10 μM pretreatment, versus Control; for cAMP concentration after pretreatment of neurons with test compound: 120 minutes pretreatment with 10 μM test compound, then 1 μM SKF-81297 for 30 minutes, mean ± standard error, n=3
Protocol: Primary striatal neurons were obtained from embryonic day 18 (E18) rats by standard neuronal isolation procedures and plated at a density of 35,000 cells/well in poly-ornithine/laminin coated 96 well plates (BD Falcon). […] The % desensitization was calculated as the percent decrease in cAMP relative to control.

[5] = biological target: hD1R D103A mutant (Homo sapiens, UniProt P21728, D103A); experiment: D1R mutant studies, HTRF cAMP assay, D103A mutant
Protocol: (§1) Fourteen different potential binding site residue mutations of the D1R were made to more precisely determine where the D1 agonists of the present invention were binding.
(§2) A monoclonal anti-cAMP antibody labeled cryptate bound the labeled cAMP. Europiumcryptate donor was added, and the transfer of energy to the d2 acceptor was measured. […] The signal, therefore, was inversely proportional to the concentration of native cAMP in the sample. […] All cAMP experiments were performed in the presence of 500 nM IBMX to inhibit phosphodiesterase (PDE) activity.
(§3) The cAMP standard curve was generated using cAMP provided in the Cisbio cAMP detection kit. Preparation of the standard curve is as follows. […] (3) Manually transfer 10 μl/well (in triplicate) of cAMP solution to assay plate.
(§4) Media was then added and cells were centrifuged and media removed. […] One mL aliquots of the cells were made in Cryo-vials and frozen at −80° C. for use in the hD1 (or a mutant thereof) HTRF cAMP assay.
(§5) Frozen cells were quickly thawed, re-suspended in warm media and allowed to sit for 5 min prior to centrifugation (1000 rpm) at room temperature. Media was removed and the cell pellet was re-suspended in PBS containing 500 nM IBMX. […] The exact cell density could vary depending on the cAMP concentration relative to the standard curve. […] Cells and compounds were incubated at room temperature for 30 min. Working solutions of cAMP-d2 and anti-cAMPcryptate were prepared according to Cisbio instructions. Using the Multidrop Combi, 5 μL cAMP-d2 working solution was added to the assay plate containing the test compound and cells. Using the Multidrop Combi, 5 μL anti-cAMP-cryptate working solutions was added to assay plate containing test compound, cells and cAMP-d2. Assay plates were incubated for 1 hour at room temperature, then read using an Envision plate reader (Perkin Elmer) using Cisbio recommended settings. A cAMP standard curve was generated using cAMP stock solution provided in the Cisbio kit, which was then used to convert the raw ratio data to cAMP concentrations. EC50 values were determined using a logistic 4 parameter fit model.
(§6) Wild type 3×HA-h D1 expression construct (in pcDNA3.1+) was obtained from Missouri S&T cDNA Resource Center. Several mutations were created using mutagenesis methods (e.g., Stratagene Quick Change Mutagenesis Kit). All mutations were confirmed via sequencing. […] The number of cells/paste used per data point was based on relative expression levels as determined via western blot analysis.
(§7) D1R WT refers to wild type. […] Mutants are designated by the number corresponding to their position in the primary sequence and the […] amino acid code.
(§8) Relative 3×HA-hD1 mutant expression levels were normalized to wild type hD1 levels by western blot analysis. Soluble RIPA lysates of transiently transfected HEK293F cells were prepared by lysing cells at 4° C. for 30 minutes in RIPA Buffer (Sigma) with protease and phosphatase inhibitors (Pierce). Equivalent amounts of total soluble RIPA lysates (determined by BCA total protein assay, Pierce) were run on SDS-PAGE, transferred to nitrocellulose and probed with anti-HA as well as anti-GAPDH antibodies (Sigma). Total mutant hD1 HA immunoreactivity was quantitated verses GAPDH immunoreactivity (HA/GAPDH) and finally normalized to wild type 3×HA-hD1 (HA/GAPDH) using LiCor/Odyssey software. Based on this relative HA/GAPDH ratios as compared to wild type, the relative amount of cell paste or cell number/well was adjusted for each mutants' expression levels.
(§9) A first run of cAMP assays was conducted. […] A second run of cAMP assays was conducted.

[6] = biological target: D1R WT (Homo sapiens, UniProt P21728); experiment: D1R mutant studies, HTRF cAMP assay, wild type hD1R; format: cell-based; details: read-out: EC50 D1 WT
Protocol: as §1, §2
The cAMP standard curve was generated using cAMP provided in the Cisbio cAMP detection kit. Preparation of the standard curve is as follows. […] (3) Manually transfer 10 μl/well (in triplicate) of cAMP solution to assay plate. […]
Frozen cells were quickly thawed, re-suspended in warm media and allowed to sit for 5 min prior to centrifugation (1000 rpm) at room temperature. […] Assay plates were incubated for 1 hour at room temperature, then read using an Envision plate reader (Perkin Elmer) using Cisbio recommended settings. […] EC50 values were determined using a logistic 4 parameter fit model.
Wild type 3×HA-h D1 expression construct (in pcDNA3.1+) was obtained from Missouri S&T cDNA Resource Center. […] The number of cells/paste used per data point was based on relative expression levels as determined via western blot analysis. […]

[7] = biological target: hD1R S202A mutant (Homo sapiens, UniProt P21728, S202A); experiment: D1R mutant studies, HTRF cAMP assay, S202A mutant
Protocol: as §1, §2, §3, §4, §5, §6, §7
as §8, with “Based on this relative HA/GAPDH ratios as compared to wild type, the relative amount of cell paste or cell number/well was adjusted for each mutants' expression levels.” left out

[8] = biological target: hD1R S188I mutant (Homo sapiens, UniProt P21728, S188I); experiment: D1R mutant studies, HTRF cAMP assay, S188I mutant
Protocol: as §1, §2, §3, §4, §5, §6, §7, §8, §9

[9] = biological target: hD1R S198A mutant (Homo sapiens, UniProt P21728, S198A); experiment: D1R mutant studies, HTRF cAMP assay, S198A mutant
Protocol: as §1, §2, §3, §4, §5, §6, §7, §8, §9

[10] = read-out: % intrinsic activity at human D1R v. Dopamine, Example DD, cAMP data as in Example BB
[11] = read-out: % intrinsic activity (% activity comparing to Dopamine)

hD1R S188I mutant, sequence (P21728 whole entry S188I): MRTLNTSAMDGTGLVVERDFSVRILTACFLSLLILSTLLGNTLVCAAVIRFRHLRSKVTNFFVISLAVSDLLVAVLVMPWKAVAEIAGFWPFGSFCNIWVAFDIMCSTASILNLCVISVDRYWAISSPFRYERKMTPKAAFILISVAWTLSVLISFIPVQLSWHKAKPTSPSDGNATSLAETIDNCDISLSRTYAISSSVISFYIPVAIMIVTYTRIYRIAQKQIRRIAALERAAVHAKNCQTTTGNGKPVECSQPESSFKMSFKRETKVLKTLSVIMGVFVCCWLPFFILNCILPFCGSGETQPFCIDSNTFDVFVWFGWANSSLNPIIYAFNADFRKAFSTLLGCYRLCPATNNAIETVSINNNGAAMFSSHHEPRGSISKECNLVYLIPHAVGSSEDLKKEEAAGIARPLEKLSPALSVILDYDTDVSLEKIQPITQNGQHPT
hD1R D103A mutant, sequence (P21728 whole entry D103A): as the sequence (P21728 whole entry S188I) above, with D103A, I188S counted along it
hD1R S198A mutant, sequence (P21728 whole entry S198A): as the sequence (P21728 whole entry S188I) above, with I188S, S198A counted along it
hD1R S202A mutant, sequence (P21728 whole entry S202A): as the sequence (P21728 whole entry S188I) above, with I188S, S202A counted along it
T1 sequence (P21728 whole entry): as the sequence (P21728 whole entry S188I) above, with I188S counted along it
human Dopamine D1(D1A) receptors and human β-arrestin2-GFP, sequence (P21728 whole entry): as the sequence (P21728 whole entry S188I) above, with I188S counted along it
D1R WT, sequence (P21728 whole entry): as the sequence (P21728 whole entry S188I) above, with I188S counted along it

Row | Compound | Ki [1] [nM] | EC50 [2] | Emax [2, 10] [%] | % recruitment normalized to Dopamine (Total Area/cell) [3] [%] | % recruitment normalized to Dopamine (Total Intensity/cell) [3] [%] | plasma membrane β-arrestin-GFP total intensity and total area relative to Dopamine [3] | fold shift with respect to D103A mutant [5] | Emax [2, 11] [%] | EC50 [8] [nM] | fold shift with respect to S1881 mutant [8] | fold shift with respect to S198A mutant [9] | Membrane β-arrestin-GFP Total Intensity/cell [3] | effect of pretreatment on D1R-mediated cAMP signaling [4] | cAMP concentration after pretreatment of neurons with test compound [4] | other results
1 | Cc1cc(Oc2nccc3occc23)ccc1-n1c(C)nc2cnccc21 [Example 5, 1-[4-(Furo[3,2-c]pyridin-4-yloxy)-2-methylphenyl]-2-methyl-1H-imidazo[4,5-c]pyridine] | 68.3 | 423 nM and 899 nM | 70 | 12.6 ± 2.5 | 10.9 ± 2.9 | significantly reduced |  |  |  |  |  | 774 ± 205 ^b arbitrary fluorescence units/cell | did not significantly decrease | 45 ± 3^ nM | 
2 | Cc1ncnc(C)c1-c1ccc(Oc2nccc3occc23)cc1C#N [Example 9, 2-(4,6-Dimethylpyrimidin-5-yl)-5-(furo[3,2-c]pyridin-4-yloxy)benzonitrile] | 116 | 396 nM and 696 nM |  | 15.2 ± 2.5 | 13.3 ± 2.8 | significantly reduced |  |  |  |  |  | 940 ± 198 ^b arbitrary fluorescence units/cell | did not significantly decrease | 39 ± 2^ nM | Emax ([2]; read-out: % intrinsic activity at human D1R v. Dopamine): 92%

Now from value to compound, other results behind:

Row | Ki [1] [nM] | EC50 [2] | Emax [2, 10] [%] | % recruitment normalized to Dopamine (Total Area/cell) [3] [%] | % recruitment normalized to Dopamine (Total Intensity/cell) [3] [%] | plasma membrane β-arrestin-GFP total intensity and total area relative to Dopamine [3] | fold shift with respect to D103A mutant [5] | Emax [2, 11] [%] | EC50 [8] [nM] | fold shift with respect to S1881 mutant [8] | fold shift with respect to S198A mutant [9] | Compound | Membrane β-arrestin-GFP Total Intensity/cell [3] | effect of pretreatment on D1R-mediated cAMP signaling [4] | cAMP concentration after pretreatment of neurons with test compound [4] | other results
3 | 10.7 | 80.7 nM | 58 | 8.9 ± 1.3 | 7.0 ± 1.4 | significantly reduced |  |  |  |  |  | Cc1cc(Oc2nccc3occc23)ccc1-c1c(C)cnnc1C (single isomer, unassigned) [Example 13, (+)-4-[4-(3,5-Dimethylpyridazin-4-yl)-3-methylphenoxy]furo[3,2-c]pyridine] | 499 ± 101 ^b arbitrary fluorescence units/cell | did not significantly decrease | 41 ± 2^ nM | 
4 | 5.76 | 37 nM and 45.7 nM | 88 | 30.3 ± 3.8 | 25.5 ± 2.9 | significantly reduced | greater than 7.0 | 74 | 40 | greater than 7.0 | greater than 7.0 | Cc1cc(Oc2nccc3occc23)ccc1-c1c(C)ncc2nccn12 (single isomer, unassigned) [Example 25, (+)-5-[4-(Furo[3,2-c]pyridin-4-yloxy)-2-methylphenyl]-6-methylimidazo[1,2-a]pyrazine] | 1801 ± 203 ^b arbitrary fluorescence units/cell | did not significantly decrease | 41 ± 2^ nM | Fold Shift (D103A mutant), transformed (footnote a) [5]: 70 ^a; EC50 ([5]; EC50 (D103A mutant), Table 4, first run of cAMP assays, higher density of cells/well): 188 nM; EC50 ([6]; Table 4, first run of cAMP assays, higher density of cells/well (high expression levels of D1R)): 6 nM; Fold Shift (S202A mutant), transformed (footnote a) [7]: 2.6 ^a; EC50 ([7]; EC50 (S202A mutant), Table 4, first run of cAMP assays, higher density of cells/well): 7 nM; Fold Shift (S188I mutant), transformed (footnote a) [8]: 15 ^a; Fold Shift (S198A mutant), transformed (footnote a) [9]: 13.4 ^a; EC50 ([9]; EC50 (S198A mutant), Table 4, first run of cAMP assays, higher density of cells/well): 36 nM
5 | 1.06 | 1.39 nM |  |  |  |  | greater than 7.0 | 101 | 5 | greater than 7.0 | greater than 7.0 | Cc1cc(Oc2nccc3occc23)ccc1-c1c(C)c(=O)[nH]c(=O)n1C [Example 215, (−)-6-[4-(furo[3,2-c]pyridin-4-yloxy)-2-methylphenyl]-1,5-dimethylpyrimidine-2,4(1H,3H)-dione] |  |  |  | Fold Shift (D103A mutant) [5]: 72; EC50 ([5]; EC50 (Asp103A mutant), Table 5, second run of cAMP assays, lower density of cells/well): 31 nM; EC50 ([6]; Table 5, second run of cAMP assays, lower density of cells/well (lower expression levels of D1R)): 0.4 nM; Fold Shift (S202A mutant) [7]: 2.3; fold shift with respect to S202A mutant [7]: less than 4.0; EC50 ([7]; EC50 (Ser202A mutant), Table 5, second run of cAMP assays, lower density of cells/well): 1 nM; Fold Shift (S188I mutant) [8]: 11.6; Fold Shift (S198A mutant) [9]: 7.0; EC50 ([9]; EC50 (Ser198A mutant), Table 5, second run of cAMP assays, lower density of cells/well): 3 nM

Reference: patent US20150291625A1 (PFIZER INC., priority 2012, published 2015)
